Tests used:
Type in all cases: in vivo
[1] = tested on: Apera spica-venti; test: Test Example 5: herbicidal effect by foliage application, plastic box (symbol L); conditions: 320 g/ha, 3 weeks after application
Summary of the method: (§1)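 Herbicide, formulated as an emulsion and diluted in water, is sprayed onto the aerial parts of 14-day seedlings. These were grown at 25° C. to 30° C. in sterilized diluvial soil; effects are graded after 3 weeks.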

[2] = tested on: rapeseed; test: Test Example 5: effect on crop by foliage application, plastic box (symbol g); conditions: 320 g/ha, 3 weeks after application
Summary of the method: (§2)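 Seeds were sown in spots in sterilized diluvial soil held in a plastic box 21 cm × 13 cm × 7 cm deep, covered with about 1.5 cm of soil, and grown in a greenhouse at 25° C. to 30° C.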

[3] = tested on: Abutilon theophrasti; test: Test Example 4: herbicidal effect by soil treatment (symbol M); conditions: for Herbicidal effect grade, M: Abutilon theophrasti: application herbicide amount 320 g/ha
Summary of the method: (§3)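 Seeds were sown in sterilized diluvial soil, covered with about 1.5 cm of soil, and the soil surface was sprayed with a water-diluted emulsion of the compound at a predetermined rate. Plants grew in a greenhouse at 25° C. to 30° C.; effects were scored visually 3 weeks after application.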

[4] = tested on: Alopecurus myosuroides; test: Test Example 5: herbicidal effect by foliage application, plastic box (symbol J); conditions: 320 g/ha, 3 weeks after application
Summary of the method: as §1

[5] = tested on: Echinochloa crus-galli var. crus-galli; test: Test Example 3: herbicidal effect by foliage application, Wagner pot (symbol H); conditions: application herbicide amount 320 g/ha; for H (Echinochloa crus-galli var. crus-galli) herbicidal effect grade: Table 24
Summary of the method: (§4)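 Weeds and rice were sown in alluvial soil under 0.1–0.5 cm of standing water and grown for 14 days in a 25–30 °C greenhouse. An emulsion of the compound, diluted in water to a set dose, was sprayed evenly onto the foliage. Effect was scored against fixed criteria 3 weeks after treatment.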

[6] = tested on: Setaria viridis; test: Test Example 4: herbicidal effect by soil treatment (symbol G); conditions: for Herbicidal effect grade, G: Setaria viridis: application herbicide amount 320 g/ha
Summary of the method: as §3

[7] = tested on: Apera spica-venti; test: Test Example 4: herbicidal effect by soil treatment (symbol L); conditions: for Herbicidal effect grade, L: Apera spica-venti: application herbicide amount 320 g/ha
Summary of the method: as §3

[8] = tested on: Scirpus juncoides; test: Test Example 1: herbicidal activity, application before weed generation in submerged conditions (symbol B); conditions: application herbicide amount 320 g/ha
Summary of the method: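 Weed control was rated three weeks after treatment on a 0–5 scale, from 5% or lower up to 90% or more. Pre-emergence water-surface application of diluted emulsion at a predetermined rate was made on the day of sowing, in flooded (4 cm water) pots containing rice seedlings, kept at 25–30 °C under glass.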

[9] = tested on: Echinochloa oryzacola Vasing.; test: Test Example 2: herbicidal activity, application during weed generation in submerged conditions (symbol A); conditions: Table 23; application herbicide amount 320 g/ha; grade 0-5 by criteria of Test Example 1
Summary of the method: (§5)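 Alluvial soil in pots was flooded to a 4 cm water depth and sown with a mix of the three weed species, then grown in a greenhouse at 25° C. to 30° C. At the one- to two-leaf stage, an emulsifiable formulation diluted in water to a set dose was applied to the water surface. Effects were scored visually 3 weeks later.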

[10] = tested on: Chenopodium album; test: Test Example 4: herbicidal effect by soil treatment (symbol O); conditions: for Herbicidal effect grade, O: Chenopodium album: application herbicide amount 320 g/ha
Summary of the method: as §3

[11] = tested on: Cyperus difformis; test: Test Example 3: herbicidal effect by foliage application, Wagner pot (symbol E); conditions: application herbicide amount 320 g/ha; for E herbicidal effect grade: Table 24
Summary of the method: as §4

[12] = tested on: Avena fatua; test: Test Example 4: herbicidal effect by soil treatment (symbol I); conditions: for Herbicidal effect grade, I: Avena fatua: application herbicide amount 320 g/ha
Summary of the method: as §3

[13] = tested on: Veronica persica; test: Test Example 4: herbicidal effect by soil treatment (symbol R); conditions: for Herbicidal effect grade, R: Veronica persica: application herbicide amount 320 g/ha
Summary of the method: as §3

[14] = tested on: Scirpus juncoides; test: Test Example 2: herbicidal activity, application during weed generation in submerged conditions (symbol B); conditions: Table 23; application herbicide amount 320 g/ha; grade 0-5 by criteria of Test Example 1
Summary of the method: as §5

[15] = tested on: corn; test: Test Example 5: effect on crop by foliage application, plastic box (symbol c); conditions: 320 g/ha, 3 weeks after application
Summary of the method: as §2

[16] = tested on: Alopecurus myosuroides; test: Test Example 4: herbicidal effect by soil treatment (symbol J); conditions: for Herbicidal effect grade, J: Alopecurus myosuroides: application herbicide amount 320 g/ha
Summary of the method: as §3

Row | Compound | L: Apera spica-venti, herbicidal effect grade [1] | g: rapeseed, effect on crop grade [2] | Herbicidal effect grade, M: Abutilon theophrasti [3] | J: Alopecurus myosuroides, herbicidal effect grade [4] | H (Echinochloa crus-galli var. crus-galli) herbicidal effect grade [5] | Herbicidal effect grade, G: Setaria viridis [6] | Herbicidal effect grade, L: Apera spica-venti [7] | B (Scirpus juncoides) herbicidal effect grade [8] | Herbicidal effect grade, A: Echinochloa oryzacola Vasing. [9] | Herbicidal effect grade, O: Chenopodium album [10] | E herbicidal effect grade [11] | Herbicidal effect grade, I: Avena fatua [12] | Herbicidal effect grade, R: Veronica persica [13] | Herbicidal effect grade, B: Scirpus juncoides [14] | c: corn, effect on crop grade [15] | Herbicidal effect grade, J: Alopecurus myosuroides [16] | also measured
1 | CC#Cc1cc(C)c(C2=C(O)CC(CC(=NOCCOC)C3CC3)C2=O)c(C)c1 (stereo not shown) [9-021] | 5 (Herbicidal ratio of 90% or more (almost completely withered)) | 4 (Herbicidal ratio of 70% or higher and lower than 90%) | 1 (Herbicidal ratio of 5% or higher and lower than 20%) | 5 (Herbicidal ratio of 90% or more (almost completely withered)) | 5 (Herbicidal ratio of 90% or more (almost completely withered)) | 5 (Herbicidal ratio of 90% or more (almost completely withered)) | 5 (Herbicidal ratio of 90% or more (almost completely withered)) | 5 (Herbicidal ratio of 90% or more (almost completely withered)) | 5 (Herbicidal ratio of 90% or more (almost completely withered)) | 0 (Herbicidal ratio of 5% or lower (almost no effect)) | 5 (Herbicidal ratio of 90% or more (almost completely withered)) | 1 (Herbicidal ratio of 5% or higher and lower than 20%) | 3 (Herbicidal ratio of 40% or higher and lower than 70%) | 5 (Herbicidal ratio of 90% or more (almost completely withered)) | 5 (Herbicidal ratio of 90% or more (almost completely withered)) | 5 (Herbicidal ratio of 90% or more (almost completely withered)) | –
2 | CCCON=C(C)CC1CC(O)=C(c2c(C)cc(C)cc2C)C1=O (stereo not shown) [1-123] | – | – | – | – | – | – | – | – | 5 (Herbicidal ratio of 90% or more (almost completely withered)) | – | – | – | – | 3 (Herbicidal ratio of 40% or higher and lower than 70%) | – | – | L: Apera spica-venti, herbicidal effect (criteria 0-5) [1]: 5 (Herbicidal ratio of 90% or more (almost completely withered)); g: rapeseed, effect on crop (criteria 0-5) [2]: 5 (Herbicidal ratio of 90% or more (almost completely withered)); M: Abutilon theophrasti, herbicidal effect grade ([3]; 320 g/ha): 3 (Herbicidal ratio of 40% or higher and lower than 70%); J: Alopecurus myosuroides, herbicidal effect (criteria 0-5) [4]: 5 (Herbicidal ratio of 90% or more (almost completely withered)); herbicidal effect on H (Echinochloa crus-galli var. crus-galli), grade 0-5 [5]: 5 (Herbicidal ratio of 90% or more (almost completely withered)); G: Setaria viridis, herbicidal effect grade ([6]; 320 g/ha): 5 (Herbicidal ratio of 90% or more (almost completely withered)); L: Apera spica-venti, herbicidal effect grade ([7]; 320 g/ha): 5 (Herbicidal ratio of 90% or more (almost completely withered)); Herbicidal effect grade, B: Scirpus juncoides [8]: 4 (Herbicidal ratio of 70% or higher and lower than 90%); O: Chenopodium album, herbicidal effect grade ([10]; 320 g/ha): 0 (Herbicidal ratio of 5% or lower (almost no effect)); herbicidal effect on E, grade 0-5 [11]: 4 (Herbicidal ratio of 70% or higher and lower than 90%); I: Avena fatua, herbicidal effect grade ([12]; 320 g/ha): 4 (Herbicidal ratio of 70% or higher and lower than 90%); R: Veronica persica, herbicidal effect grade ([13]; 320 g/ha): 0 (Herbicidal ratio of 5% or lower (almost no effect)); c: corn, effect on crop (criteria 0-5) [15]: 5 (Herbicidal ratio of 90% or more (almost completely withered)); J: Alopecurus myosuroides, herbicidal effect grade ([16]; 320 g/ha): 5 (Herbicidal ratio of 90% or more (almost completely withered))
3 | Cc1cc(-n2cc(Cl)cn2)cc(C)c1C1=C(O)CC(CC(=NOCC(F)(F)F)C(C)C)C1=O (stereo not shown) [9-014] | 3 (Herbicidal ratio of 40% or higher and lower than 70%) | 2 (Herbicidal ratio of 20% or higher and lower than 40%) | 0 (Herbicidal ratio of 5% or lower (almost no effect)) | 4 (Herbicidal ratio of 70% or higher and lower than 90%) | 5 (Herbicidal ratio of 90% or more (almost completely withered)) | 3 (Herbicidal ratio of 40% or higher and lower than 70%) | 0 (Herbicidal ratio of 5% or lower (almost no effect)) | 4 (Herbicidal ratio of 70% or higher and lower than 90%) | 2 (Herbicidal ratio of 20% or higher and lower than 40%) | 0 (Herbicidal ratio of 5% or lower (almost no effect)) | 5 (Herbicidal ratio of 90% or more (almost completely withered)) | 0 (Herbicidal ratio of 5% or lower (almost no effect)) | 0 (Herbicidal ratio of 5% or lower (almost no effect)) | 0 (Herbicidal ratio of 5% or lower (almost no effect)) | 5 (Herbicidal ratio of 90% or more (almost completely withered)) | 0 (Herbicidal ratio of 5% or lower (almost no effect)) | –
4 | Cc1cc(Br)cc(C)c1C1=C(O)CC(CC(=O)C2CC2)C1=O (racemic) [10-004] | 5 (Herbicidal ratio of 90% or more (almost completely withered)) | 4 (Herbicidal ratio of 70% or higher and lower than 90%) | 0 (Herbicidal ratio of 5% or lower (almost no effect)) | 5 (Herbicidal ratio of 90% or more (almost completely withered)) | 5 (Herbicidal ratio of 90% or more (almost completely withered)) | 5 (Herbicidal ratio of 90% or more (almost completely withered)) | 5 (Herbicidal ratio of 90% or more (almost completely withered)) | 0 (Herbicidal ratio of 5% or lower (almost no effect)) | 5 (Herbicidal ratio of 90% or more (almost completely withered)) | 0 (Herbicidal ratio of 5% or lower (almost no effect)) | 5 (Herbicidal ratio of 90% or more (almost completely withered)) | 3 (Herbicidal ratio of 40% or higher and lower than 70%) | 0 (Herbicidal ratio of 5% or lower (almost no effect)) | 0 (Herbicidal ratio of 5% or lower (almost no effect)) | 5 (Herbicidal ratio of 90% or more (almost completely withered)) | 5 (Herbicidal ratio of 90% or more (almost completely withered)) | –
